Experimental findings from PMC7296167, “SrrB, a Pseudo-Receptor Protein, Acts as a Negative Regulator for Lankacidin and Lankamycin Production in Streptomyces rochei” (Frontiers in Microbiology, 2020) are described below.

One test concerns the target T1, SrrA (Streptomyces rochei, UniProt Q83X22).
T1 construct: recombinant, overexpressed in E. coli, prepared as in Yamamoto et al. 2008
T1 sequence (Q83X22 1-222): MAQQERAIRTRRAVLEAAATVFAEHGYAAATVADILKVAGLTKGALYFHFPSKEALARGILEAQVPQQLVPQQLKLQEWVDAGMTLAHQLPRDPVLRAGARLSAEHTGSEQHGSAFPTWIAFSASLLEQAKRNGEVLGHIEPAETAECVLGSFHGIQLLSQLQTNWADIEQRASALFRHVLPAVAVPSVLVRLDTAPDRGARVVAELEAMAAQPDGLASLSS
The test is described as follows: gel shift assay, dissociation from […]-labelled srrB probe B1 and srrY probe Y1. The test is classed as binding. The settings on record: […] SRB1 on probe B1, concentration series on probe Y1; […] SrrA, […] probe, […] C, pH […]. For orientation: A gel shift assay detects complexes by their altered migration in electrophoresis.

For another test, the target named is T2, SrrB (Streptomyces rochei, UniProt Q83X25).
T2 construct: pET32b(+) His6 fusion from E. coli BL21(DE3)pLysS; N-terminal tag removed with enterokinase
T2 sequence (Q83X25 1-228): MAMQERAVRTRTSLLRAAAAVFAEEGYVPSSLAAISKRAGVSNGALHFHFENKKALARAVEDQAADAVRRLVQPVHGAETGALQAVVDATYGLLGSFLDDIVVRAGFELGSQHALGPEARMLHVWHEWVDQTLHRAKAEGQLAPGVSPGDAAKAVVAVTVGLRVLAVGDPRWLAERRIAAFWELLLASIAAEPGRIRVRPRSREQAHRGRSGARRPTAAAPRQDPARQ
The test is described as follows: gel shift assay, dissociation from […]-labelled srrY promoter probe Y1. The test is classed as binding. The settings on record: 0.5 nM probe Y1, 2,000 nM SrrB, 26 C, pH 8.0; DNA release read-out.

Structures are written as SMILES.

On to `CC1=C([C@H](O)CCCCC(=O)CC(C)C)C(=O)OC1O` (some centres unmarked) [compound 7, SRB1], for which the “gel shift assay, dissociation from 32P-labelled srrB probe B1 and srrY probe Y1” value on SrrA is “Addition of SRB led to dissociation of SrrA from probe B1”. Moreover, the “concentration required for dissociation” value on SrrB was 1 mM.
